In test [1] the target is 3',5'-cyclic-AMP phosphodiesterase 4B (Homo sapiens, UniProt Q07343). Description: Inhibition of human recombinant PDE4B1 using […] as substrate preincubated with compound for 15 mins followed by substrate addition and measured after 30 mins by spectrofluorimetric analysis.
Another test has as its target Phosphodiesterase 4 (Homo sapiens, UniProt P27815+Q08499+Q07343+Q08493). In words: Inhibition of PDE4 (unknown origin). In kind it is protein assay.
In a further test the target is Histone deacetylase 1 (Homo sapiens, UniProt Q13547). In words: Inhibition of HDAC1 (unknown origin).
For test [2], the target named is T1, cGMP-specific 3',5'-cyclic phosphodiesterase (Homo sapiens, UniProt O76074). In words: Inhibition of PDE5A (unknown origin).
The next test deals with Acetylcholinesterase (Homo sapiens, UniProt P22303). In words: Inhibition of AChE (unknown origin) using acetylthiocholine iodide as substrate by Ellman's method.
For test [3], the target named is 3',5'-cyclic-AMP phosphodiesterase 7B (Homo sapiens, UniProt Q9NP56). In words: Inhibition of PDE7B (unknown origin).
Test [4] deals with High affinity 3',5'-cyclic-AMP phosphodiesterase 7A (Homo sapiens, UniProt Q13946). In words: Inhibition of PDE7A (unknown origin).
Test [5] addresses T2, cAMP and cAMP-inhibited cGMP 3',5'-cyclic phosphodiesterase 10A (Homo sapiens, UniProt Q9Y233). Description: Inhibition of his-tagged recombinant human PDE10A catalytic domain extracted from Escherichia coli BL21(DE3) using [3H]-cAMP as substrate incubated for 10 mins by SPA assay.
The target in test [6] is T3, High affinity cGMP-specific 3',5'-cyclic phosphodiesterase 9A (Homo sapiens, UniProt O76083). In words: Inhibition of PDE9A (unknown origin).
Test [7] in a line: Inhibition of PDE1 (unknown origin). More on the design: species or system Homo sapiens.
The target in test [8] is T2, cAMP and cAMP-inhibited cGMP 3',5'-cyclic phosphodiesterase 10A. Description: Inhibition of PDE10A (unknown origin).
In test [9] the target is cGMP-dependent 3',5'-cyclic phosphodiesterase (Homo sapiens, UniProt O00408). In words: Inhibition of PDE2A (unknown origin) using 3H-cGMP as substrate.
The target in test [10] is Dual specificity calcium/calmodulin-dependent 3',5'-cyclic nucleotide phosphodiesterase 1C (Homo sapiens, UniProt Q14123). In words: Inhibition of PDE1C (unknown origin).
Test [11] has as its target Dual specificity calcium/calmodulin-dependent 3',5'-cyclic nucleotide phosphodiesterase 1B (Homo sapiens, UniProt Q01064). Description: Inhibition of PDE1B (unknown origin).
Test [12] has as its target Dual specificity calcium/calmodulin-dependent 3',5'-cyclic nucleotide phosphodiesterase 1A (Homo sapiens, UniProt P54750). In words: Inhibition of human recombinant GST-tagged PDE1A.
Test [13] addresses Glycogen synthase kinase-3 alpha (Homo sapiens, UniProt P49840). Description: Inhibition of GSK3alpha (unknown origin).
In test [14] the target is T3, High affinity cGMP-specific 3',5'-cyclic phosphodiesterase 9A. Description: Binding affinity to PDE9A (unknown origin) using [3H]cAMP as substrate assessed as inhibition constant incubated for 1 hr by […]. Background: SPR reads the build-up and loss of mass on a sensor chip optically.
Test [15] deals with cGMP-inhibited 3',5'-cyclic phosphodiesterase 3B (Homo sapiens, UniProt Q13370). In words: Inhibition of human recombinant PDE3B using FAM-cyclic-3',5'-AMP as substrate incubated for 1 hrs by fluorescence polarization based assay.
Test [16] concerns the target cGMP-inhibited 3',5'-cyclic phosphodiesterase 3A (Homo sapiens, UniProt Q14432). In words: Inhibition of PDE3A (unknown origin) using FAM-cAMP as substrate incubated for 45 mins by TR-FRET analysis. (TR-FRET usually uses a lanthanide donor and a delayed reading to cut background.)
For test [17], the target named is T1, cGMP-specific 3',5'-cyclic phosphodiesterase. Description: Inhibition of PDE5A1 (unknown origin) using [3H]-cGMP substrate incubated for 15 mins by liquid scintillation counting method.

SMILES strings stand for the structures.

Broadly, the IC50 is the concentration that inhibits the measured activity by half. As a reminder, the Ki is the equilibrium dissociation constant of an inhibitor or competing ligand from its target.

Chain of 3',5'-cyclic-AMP phosphodiesterase 4B (Q07343 whole entry): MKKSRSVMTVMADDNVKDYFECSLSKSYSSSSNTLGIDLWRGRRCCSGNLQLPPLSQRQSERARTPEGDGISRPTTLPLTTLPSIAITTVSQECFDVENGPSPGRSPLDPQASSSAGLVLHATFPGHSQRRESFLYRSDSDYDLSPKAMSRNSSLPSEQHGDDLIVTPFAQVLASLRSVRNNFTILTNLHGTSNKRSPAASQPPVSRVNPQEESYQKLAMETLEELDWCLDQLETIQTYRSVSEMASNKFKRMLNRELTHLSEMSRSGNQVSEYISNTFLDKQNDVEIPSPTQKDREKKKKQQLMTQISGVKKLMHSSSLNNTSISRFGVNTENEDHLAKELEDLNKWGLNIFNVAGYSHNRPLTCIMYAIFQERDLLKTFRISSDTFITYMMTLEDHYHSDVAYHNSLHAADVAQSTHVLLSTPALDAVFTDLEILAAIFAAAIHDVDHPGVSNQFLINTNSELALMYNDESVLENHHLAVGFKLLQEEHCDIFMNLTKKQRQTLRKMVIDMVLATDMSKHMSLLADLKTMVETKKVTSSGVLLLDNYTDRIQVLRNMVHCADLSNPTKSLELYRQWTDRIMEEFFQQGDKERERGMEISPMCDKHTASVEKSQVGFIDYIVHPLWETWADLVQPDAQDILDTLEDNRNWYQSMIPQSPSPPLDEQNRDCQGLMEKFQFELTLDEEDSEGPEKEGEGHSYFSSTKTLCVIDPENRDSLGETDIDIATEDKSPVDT
T3 sequence (O76083 whole entry): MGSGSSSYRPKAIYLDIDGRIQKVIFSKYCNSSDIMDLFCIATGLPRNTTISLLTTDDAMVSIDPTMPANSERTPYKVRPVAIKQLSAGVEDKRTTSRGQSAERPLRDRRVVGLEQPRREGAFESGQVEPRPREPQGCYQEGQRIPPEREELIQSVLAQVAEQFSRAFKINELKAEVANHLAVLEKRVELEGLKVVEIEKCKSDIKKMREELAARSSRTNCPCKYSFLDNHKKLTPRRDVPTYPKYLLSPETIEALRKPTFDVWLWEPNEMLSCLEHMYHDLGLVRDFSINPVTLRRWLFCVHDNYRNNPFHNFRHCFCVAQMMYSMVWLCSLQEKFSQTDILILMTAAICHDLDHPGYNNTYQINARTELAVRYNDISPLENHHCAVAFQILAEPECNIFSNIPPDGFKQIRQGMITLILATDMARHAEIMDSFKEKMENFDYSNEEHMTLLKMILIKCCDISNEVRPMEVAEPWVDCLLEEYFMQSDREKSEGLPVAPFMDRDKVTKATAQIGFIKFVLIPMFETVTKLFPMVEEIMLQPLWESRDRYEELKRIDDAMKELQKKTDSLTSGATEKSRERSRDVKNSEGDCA
Chain of High affinity 3',5'-cyclic-AMP phosphodiesterase 7A (Q13946 whole entry, the tested form may be a part): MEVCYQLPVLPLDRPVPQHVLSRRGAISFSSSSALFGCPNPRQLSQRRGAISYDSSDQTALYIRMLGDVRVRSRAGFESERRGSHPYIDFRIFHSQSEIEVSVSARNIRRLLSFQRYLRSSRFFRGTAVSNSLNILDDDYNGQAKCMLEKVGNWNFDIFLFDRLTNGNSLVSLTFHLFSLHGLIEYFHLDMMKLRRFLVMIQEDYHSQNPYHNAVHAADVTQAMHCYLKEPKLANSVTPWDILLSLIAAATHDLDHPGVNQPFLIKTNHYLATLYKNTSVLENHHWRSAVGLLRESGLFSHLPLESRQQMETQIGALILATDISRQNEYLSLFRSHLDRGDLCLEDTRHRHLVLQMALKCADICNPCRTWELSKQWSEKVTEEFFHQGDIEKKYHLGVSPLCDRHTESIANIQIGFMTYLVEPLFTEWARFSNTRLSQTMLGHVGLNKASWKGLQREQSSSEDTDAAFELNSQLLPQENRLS
Chain of Dual specificity calcium/calmodulin-dependent 3',5'-cyclic nucleotide phosphodiesterase 1C (Q14123 whole entry): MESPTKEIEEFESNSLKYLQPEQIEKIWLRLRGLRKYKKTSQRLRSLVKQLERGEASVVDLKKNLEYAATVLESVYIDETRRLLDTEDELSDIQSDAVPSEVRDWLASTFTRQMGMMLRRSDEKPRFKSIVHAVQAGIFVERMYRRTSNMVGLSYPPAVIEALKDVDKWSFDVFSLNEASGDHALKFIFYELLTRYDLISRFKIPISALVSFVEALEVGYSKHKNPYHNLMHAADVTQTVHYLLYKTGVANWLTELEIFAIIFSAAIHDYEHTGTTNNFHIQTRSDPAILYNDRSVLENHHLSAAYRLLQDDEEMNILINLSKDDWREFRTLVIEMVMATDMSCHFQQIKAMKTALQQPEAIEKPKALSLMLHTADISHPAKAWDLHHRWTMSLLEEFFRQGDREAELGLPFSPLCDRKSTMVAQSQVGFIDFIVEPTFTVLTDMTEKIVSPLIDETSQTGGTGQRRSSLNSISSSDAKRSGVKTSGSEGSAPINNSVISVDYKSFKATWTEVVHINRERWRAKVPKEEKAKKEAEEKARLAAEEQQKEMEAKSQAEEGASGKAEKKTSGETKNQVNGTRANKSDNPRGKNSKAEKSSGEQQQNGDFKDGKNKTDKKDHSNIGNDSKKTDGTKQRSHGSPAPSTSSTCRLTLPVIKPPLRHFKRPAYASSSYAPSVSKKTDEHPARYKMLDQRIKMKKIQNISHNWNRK
Chain of Acetylcholinesterase (P22303 whole entry): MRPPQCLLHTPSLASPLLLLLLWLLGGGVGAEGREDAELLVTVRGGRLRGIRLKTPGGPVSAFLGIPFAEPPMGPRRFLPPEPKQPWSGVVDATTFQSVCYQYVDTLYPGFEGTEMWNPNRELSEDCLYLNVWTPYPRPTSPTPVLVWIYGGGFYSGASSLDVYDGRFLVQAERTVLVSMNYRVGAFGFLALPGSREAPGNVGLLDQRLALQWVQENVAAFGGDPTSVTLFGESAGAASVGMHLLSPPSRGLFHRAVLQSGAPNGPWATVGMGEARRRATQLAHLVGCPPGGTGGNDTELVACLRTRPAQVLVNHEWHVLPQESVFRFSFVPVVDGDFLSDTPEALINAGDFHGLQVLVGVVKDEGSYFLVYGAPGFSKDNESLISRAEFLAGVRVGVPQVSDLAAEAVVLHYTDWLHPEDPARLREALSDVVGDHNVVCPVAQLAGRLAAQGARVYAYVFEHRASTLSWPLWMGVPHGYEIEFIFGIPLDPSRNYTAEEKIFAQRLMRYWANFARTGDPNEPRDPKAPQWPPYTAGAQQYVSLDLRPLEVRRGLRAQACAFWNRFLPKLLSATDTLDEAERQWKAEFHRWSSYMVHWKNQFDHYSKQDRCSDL
Chain of Dual specificity calcium/calmodulin-dependent 3',5'-cyclic nucleotide phosphodiesterase 1B (Q01064 whole entry): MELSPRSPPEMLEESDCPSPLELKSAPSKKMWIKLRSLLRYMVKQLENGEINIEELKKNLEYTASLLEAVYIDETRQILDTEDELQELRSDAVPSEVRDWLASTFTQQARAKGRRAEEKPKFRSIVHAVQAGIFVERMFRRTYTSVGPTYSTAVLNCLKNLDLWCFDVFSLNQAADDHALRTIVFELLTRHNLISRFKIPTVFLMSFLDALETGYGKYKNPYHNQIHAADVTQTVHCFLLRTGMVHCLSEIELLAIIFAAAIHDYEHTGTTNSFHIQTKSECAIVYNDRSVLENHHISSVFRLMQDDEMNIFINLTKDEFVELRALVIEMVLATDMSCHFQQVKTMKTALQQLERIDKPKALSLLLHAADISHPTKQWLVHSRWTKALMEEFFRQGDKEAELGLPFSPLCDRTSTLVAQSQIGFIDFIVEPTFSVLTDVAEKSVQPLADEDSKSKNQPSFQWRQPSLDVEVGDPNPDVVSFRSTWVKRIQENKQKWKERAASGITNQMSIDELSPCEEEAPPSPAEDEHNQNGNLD
T2 sequence (Q9Y233 whole entry, the tested form may be a part): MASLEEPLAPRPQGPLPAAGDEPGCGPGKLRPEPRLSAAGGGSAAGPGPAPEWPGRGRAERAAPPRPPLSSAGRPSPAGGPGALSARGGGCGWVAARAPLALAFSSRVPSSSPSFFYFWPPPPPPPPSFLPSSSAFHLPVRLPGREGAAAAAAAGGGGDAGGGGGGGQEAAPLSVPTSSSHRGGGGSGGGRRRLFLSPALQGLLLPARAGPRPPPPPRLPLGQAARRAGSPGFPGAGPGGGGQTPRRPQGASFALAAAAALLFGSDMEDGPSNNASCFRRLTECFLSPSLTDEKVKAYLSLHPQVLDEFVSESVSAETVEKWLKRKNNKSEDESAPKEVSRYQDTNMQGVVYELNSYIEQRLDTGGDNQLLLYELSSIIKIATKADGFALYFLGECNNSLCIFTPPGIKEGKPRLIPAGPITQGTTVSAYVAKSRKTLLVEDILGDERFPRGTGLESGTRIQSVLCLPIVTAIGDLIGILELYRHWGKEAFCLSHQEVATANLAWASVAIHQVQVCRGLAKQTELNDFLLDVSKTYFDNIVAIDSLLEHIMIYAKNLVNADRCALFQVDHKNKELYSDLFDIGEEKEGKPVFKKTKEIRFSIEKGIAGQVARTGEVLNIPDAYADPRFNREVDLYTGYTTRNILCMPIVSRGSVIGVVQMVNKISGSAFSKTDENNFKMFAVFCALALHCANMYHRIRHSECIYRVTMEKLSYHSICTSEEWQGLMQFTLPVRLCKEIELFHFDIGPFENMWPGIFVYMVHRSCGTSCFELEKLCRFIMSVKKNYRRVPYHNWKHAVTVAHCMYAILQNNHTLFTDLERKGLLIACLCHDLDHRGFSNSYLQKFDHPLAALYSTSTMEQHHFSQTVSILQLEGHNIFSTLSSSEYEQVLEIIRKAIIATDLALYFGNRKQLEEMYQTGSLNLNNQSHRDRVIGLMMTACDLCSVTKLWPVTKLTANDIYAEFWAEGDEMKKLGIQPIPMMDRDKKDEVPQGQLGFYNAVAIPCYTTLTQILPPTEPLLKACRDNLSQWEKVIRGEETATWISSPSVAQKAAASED

Regarding `O=C(Nc1ccccc1Cl)c1ccc(OC(F)F)c(OC2CCCC2)c1`, the IC50 was 95 nM in [1] and 30 nM at Phosphodiesterase 4.

For the compound `O=C(Nc1ccccc1Cl)c1ccc(OC(F)F)c(OCC2CC2)c1`, the IC50 in test [1] was determined as 144 nM; on Phosphodiesterase 4, 90 nM.

For `CCCc1nc(C)c2c(=O)[nH]c(-c3cc(CC4CC(C(=O)NO)C4)ccc3OCC)nn12` (stereo unspecified), the IC50 on Histone deacetylase 1 came to 208 nM.

Take `O=C1[C@H]2Cc3c([nH]c4ccccc34)[C@@H](c3ccc4c(c3)OCO4)N2C(=O)CN1CCC1CCN(Cc2ccccc2)CC1`: the IC50 in test [2] turned out to be 0.15 nM; at Acetylcholinesterase it was 150 nM.

Regarding `C=CCn1cc(-c2nc3ccccc3nc2Cl)c2cc(OC)ccc21`, the IC50 in [1] amounted to 10.6 nM.

In test [2], `CC(C)CCn1c2c(c3c(O)cc(O)cc31)CCn1c-2nc2ccccc2c1=O` displayed an IC50 of 36 nM.

For `Cc1ccc([N+](=O)[O-])cc1S(=O)(=O)N(C)C`, the results for the IC50 in test [3] and in test [4] were 12.1 µM and 150 nM, respectively.

The compound `CCCc1nn(C)c2c(=O)[nH]c(-c3cc(Cc4ccc(C(=O)Nc5ccccc5N)cc4)ccc3OCC)nc12` gave an IC50 against Histone deacetylase 1 of 180 nM.

Regarding `O=C1[C@@H]2Cc3c([nH]c4ccccc34)[C@@H](c3ccc4c(c3)OCO4)N2C(=O)CN1CCC1CCN(Cc2ccccc2)CC1`, the IC50 worked out at 1.63 nM in test [2] and 1630 nM against Acetylcholinesterase.

Take `O=c1c(/C=C/c2nc3cc(Cl)ccc3n2-c2ccccc2)coc2ccc(F)cc12`: in test [5], the IC50 stood at 9.5 nM.

In the case of `COc1ccc([C@@H]2c3[nH]c4ccccc4c3C[C@H]3C(=O)N(CCC4CCN(Cc5ccccc5)CC4)CC(=O)N23)cc1`, the IC50 came out at 3.2 nM in test [2] and 3200 nM at Acetylcholinesterase.

In [6], `C[C@@H](NC(=O)/C=C/c1cccc(O)c1)c1nc2c(cnn2C2CCCC2)c(=O)[nH]1` showed a 50% inhibitory concentration (IC50) of 58 nM.

With `CCc1cc(C#N)cc2c(NCc3ccc(OC)c(Cl)c3)c(COCCF)cnc12`, it took 33.4 nM to reach half-maximal inhibition in test [2] (IC50).

In test [7], `CC(C)(C)n1ncc2c(=O)n(Cc3cccc(F)c3)c(NCc3ccc(F)cn3)nc21` had an IC50 of 40 nM.

On to `COc1cc2ncnc(NCCc3c[nH]c4ccc(O)cc34)c2cc1OC`, for which the IC50 in [8] is 0.64 nM.

In the case of `C[C@@H]1CC(Cc2ccc(C(=O)NO)cc2)C[C@H]1c1nc2c(cnn2C2CCCC2)c(=O)[nH]1` (stereo partly specified), it took 107 nM to reach half-maximal inhibition in test [6] (IC50).

`CCCCn1c(=O)n(CC)c(=O)c2[nH]c(-c3cccc(C(C)C)c3)cc21` had an IC50 in [6] of 38000 nM.

Consider `CC(c1cccc2ccccc12)n1cnc2c(=O)[nH]c(Cc3ccccc3)nc21` (stereo unspecified), for which inhibition in [9] was half-maximal at 570 nM (IC50).

Compound `COc1ccc(/C(CSc2nc3ccccc3c(=O)n2-c2ccccc2)=N\N)cc1` displayed a half-inhibitory concentration (IC50) in test [4] of 1150 nM.

Take `COc1ccc2c(N(C)[C@]3(C)CCO[C@H]3C)ncnc2c1OC`: the IC50 in test [10] was determined as 46.8 nM; in [11], 13.8 nM; in [12], 57.5 nM.

`COc1ccc(CNc2c(COCCF)cnc3c(C4CC4)cc(C#N)cc23)cc1Cl` had an IC50 in test [2] of 8 nM.

`Cn1c(OC[C@H]2CC[C@H](C(F)(F)F)CC2)nn2c(C3CCOCC3)ncc2c1=O`: the IC50 in test [10] came to 431 nM; in test [11] it was 43.9 nM.

For `CC(C)=CCc1c2c(c3occ(-c4ccc(OS(C)(=O)=O)c(OS(C)(=O)=O)c4)c(=O)c3c1O)CCC(C)(C)O2`, in test [6], it took 5.3 nM to reach half-maximal inhibition (IC50).

`O=C(NCCc1ccccc1)c1cnn2c(=O)cc(-c3ccccc3)[nH]c12`: it took 1.9 nM to reach half-maximal inhibition in test [9] (IC50).

Consider `c1ccc(-c2n/c(=N/CCN3CCOCC3)sn2-c2ccccc2)cc1`, for which the IC50 was 1590 nM in test [4] and 880 nM in test [13].

Turning to `CCCn1c(=O)c2[nH]c(-c3cccc(C(C)C)c3)cc2n(-c2ccc3c(c2)CNC3C(=O)OC)c1=O` (stereo unspecified), in test [14], the Ki came to 1.53 nM.

Consider `COC[C@H]1CC[C@H](Oc2nn3c(C4CCOCC4)ncc3c(=O)n2C)CC1`, for which the figures for the IC50 in test [10] and in [11] were 86 nM and 7.5 nM, respectively.

In test [6], `O=C1NC(=O)/C(=C/c2ccc(OCCNc3nc4c(cnn4C4CCCC4)c(=O)[nH]3)c(F)c2)S1` registered an IC50 of 1.1 nM.

Take `CN1CC(=O)N2[C@H](c3ccc4c(c3)OCO4)c3[nH]c4ccccc4c3C[C@@H]2C1=O`: inhibition at Acetylcholinesterase was half-maximal at […] (IC50).

For `O=C1CCc2cc(OCCCCc3nnnn3C3CCCCC3)ccc2N1` [CILOSTAZOL], the IC50 in [15] stood at 50 nM; in test [16], 27 nM.

Regarding `COc1cc2c(cc1OC)C(=O)C(CC1CCN(Cc3ccccc3)CC1)C2` (stereo unspecified) [DONEPEZIL], in test [17], the IC50 turned out to be 11 nM.

In the case of `CN1C(=O)c2c(nn(Cc3ccc(-c4cccc(F)n4)cc3)c2Nc2ccccc2)N2C1=N[C@@H]1CCC[C@@H]12` [LENRISPODUN], half-maximal inhibition in test [7] (IC50) was put at 50 nM.

`Cn1c(=O)c2[nH]cnc2n(C)c1=O` [THEOPHYLLINE ANHYDROUS] had an IC50 in test [7] of 280 nM.

In test [7], `CCOC(=O)C1=C[C@]2(CC)CCCN3CCc4c(n1c1ccccc41)[C@@H]32` [VINPOCETINE] showed an IC50 of 30000 nM.

Source of the values: ChEMBL document CHEMBL5608165, “Opportunities and perspectives of small molecular phosphodiesterase inhibitors in neurodegenerative diseases” (Eur J Med Chem, 2024).
